Measurements: publication PMC11949107, “Polyunsaturated fatty acids and their endocannabinoid-related metabolites activity at human TRPV1 and TRPA1 ion channels expressed in HEK-293 cells” (PeerJ, 2025)
Where “and” joins values, the source holds several entries; their conditions need not be identical. Identical values can stand only once. Values belong to the molecule of their own block, whether it stands above or below them.

What was measured:
human TRPV1 [1] = biological target: T1, human TRPV1 (Homo sapiens, UniProt Q8NER1); assay: Calcium 5 dye [Ca]i assay in HEK-293 Flp-In T-REx cells expressing TRPV1 (agonist response); assay type: cell-based; conditions: for Change in Ca5 fluorescence, individual experiments (CRC raw data): TRPV1 cells
T1 construct: Life Technologies (cells); host or cells: Flp-In T-REx HEK-293
Method in brief: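 Tetracycline-induced (1 µg ml^−1, 4 h) HEK-293 T-REx cells loaded with Calcium 5 dye plus 1.25 mM probenecid for 1 h; agonist added after 1 min baseline (0.1% DMSO final), fluorescence (485/525 nm) read every 2 s for 5 min at 37 °C. Response as % change from baseline, solvent-subtracted; EC50/Emax from three-parameter logistic fit, given as pEC50.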

human TRPV1 [2] = biological target: T1, human TRPV1; assay: PMA (phorbol ester) potentiation of TRPV1 responses in HEK-293 TRPV1 cells; assay type: cell-based; conditions: for [Ca]i response (change in fluorescence), individual replicates: sheet Figure 5(C)
Description: (§1) Intracellular calcium [Ca]i levels were assessed using the calcium 5 kit from Molecular Devices (# R8186, Sunnyvale, CA, USA) on a FlexStation 3 Microplate Reader (Molecular Devices, Sunnyvale, CA, USA). […] Probenecid (cat # 50027; Biotium) which helps to prevent expulsion of calcium indicator from the cells was added to a final concentration of 1.25 mM. 90 µL of the dye were loaded into each well of the plate and incubated for 1 h before reading in the FlexStation 3 at 37 °C. Fluorescence was recorded every 2 s (λ excitation = 485 nm, λ emission = 525 nm) for 5 min. After 1 min of baseline recording, 20 µL of the drug, dissolved in HBSS with 1% dimethyl sulfoxide (DMSO) (cat # D2650; Sigma-Aldrich, Melbourne, Australia) was added (final DMSO concentration was 0.1% in well).
We initially determined the effect of PMA, another phorbol ester that is a protein kinase C activator ([Jiang & Fleet, 2012]) on HEK-293 TRPV1 expressing cells.
(A) Response of HEK-293 TRPV1 expressing cells for PMA at various concentration. […] Drugs were added for the duration of the bar; (D) The effects of PUFAs after potentiation of TRPV1 by PMA. […] Changes in [Ca]i are expressed as percentage of the pre-drug baseline, with the response to PMA alone at 5 min subtracted. The black circles represent the response of PUFAs without PMA pretreatment while the pink circles represent the response of PUFAs after PMA potentiation.

HEK-293 EV cells = assay: Calcium 5 dye [Ca]i assay in HEK-293 empty vector (EV) cells; assay type: cell-based, human; conditions: 10 µM; HEK-293 EV cells; percentage of predrug baseline
Method in brief: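 Tetracycline at 1 µg ml^−1 was added 4 h before testing; cells were loaded with Calcium 5 dye for 1 h and read at 37 °C, with drug added after 1 min baseline (final 0.1% DMSO). The response was the % change from the 60 s baseline after solvent subtraction, and EC50/Emax came from a three-parameter logistic fit, reported as pEC50.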

human TRPV1 [3] = biological target: T1, human TRPV1; assay: Pre-incubation with PUFAs or capsazepine, then capsaicin (10 nM) response in HEK-293 TRPV1 cells; assay type: cell-based
Description: as §1, with “well). […]” for “well).”

T1 sequence (Q8NER1 whole entry): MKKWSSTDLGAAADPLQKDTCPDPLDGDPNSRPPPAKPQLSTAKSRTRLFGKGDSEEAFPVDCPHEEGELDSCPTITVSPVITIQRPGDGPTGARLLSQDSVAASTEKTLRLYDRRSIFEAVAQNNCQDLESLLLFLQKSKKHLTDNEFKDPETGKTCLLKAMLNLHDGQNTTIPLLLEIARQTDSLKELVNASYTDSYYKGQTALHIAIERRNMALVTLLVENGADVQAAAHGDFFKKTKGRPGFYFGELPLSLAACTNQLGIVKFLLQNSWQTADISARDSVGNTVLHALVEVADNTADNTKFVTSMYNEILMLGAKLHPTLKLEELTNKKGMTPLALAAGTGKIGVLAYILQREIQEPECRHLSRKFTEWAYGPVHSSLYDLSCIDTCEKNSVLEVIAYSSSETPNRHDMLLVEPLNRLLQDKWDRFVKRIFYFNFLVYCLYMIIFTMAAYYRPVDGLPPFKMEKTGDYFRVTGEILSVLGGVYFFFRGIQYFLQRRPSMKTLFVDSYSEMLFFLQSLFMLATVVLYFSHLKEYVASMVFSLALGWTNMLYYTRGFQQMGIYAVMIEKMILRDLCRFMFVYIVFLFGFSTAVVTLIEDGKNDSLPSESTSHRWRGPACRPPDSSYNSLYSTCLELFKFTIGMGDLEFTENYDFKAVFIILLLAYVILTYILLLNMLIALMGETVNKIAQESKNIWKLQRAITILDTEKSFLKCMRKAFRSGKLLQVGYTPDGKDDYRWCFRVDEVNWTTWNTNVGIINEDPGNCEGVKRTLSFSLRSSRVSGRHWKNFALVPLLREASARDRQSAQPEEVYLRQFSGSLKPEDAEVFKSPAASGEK

SMILES: COc1cc(CNC(=O)CCCC/C=C/C(C)C)ccc1O [Capsaicin]
- Elevation of [Ca]i in HEK-293 TRPV1 cells compared with HEK-293 EV cells (human TRPV1 [1]; 10 µM): significantly greater
- Change of Ca5 fluorescence, Mean ± SEM, TRPV1 (10 µM) (human TRPV1 [1]; 10 µM, HEK-293 TRPV1 cells, percentage of predrug baseline): 350 ± 33 %
- Emax at 30 µM (human TRPV1 [1]; HEK293, read-out: Emax ± SEM % TRPV1 (30 µM)): 340 ± 19%
- TRPV1 response, Mean± SEM (N) (human TRPV1 [1]; highest concentration of capsaicin (10 µM)): 337 ± 56 (21)
- Change in Ca5 fluorescence, individual experiments (CRC raw data) (human TRPV1 [1]; log concentration -5 (M)): 470.33 and 172.951 and 473.364 and 509.446 and 171.926 and 427.551 and 233.547 and 218.906 and 339.94 and 178.11 and 253.39 and 197.967 and 463.085 and 202.235 and 472.577 and 462.537 and 153.101 and 535.708 and 529.643 and 524.333
- Change in Ca5 fluorescence, individual experiments (CRC raw data) (human TRPV1 [1]; log concentration -6 (M)): 464.868 and 165.225 and 461.65 and 520.53 and 312.706 and 3.214 and 3.201 and 3.988 and 340.169 and 187.118 and 486.026 and 246.165 and 485.213
- Change in Ca5 fluorescence, individual experiments (CRC raw data) (human TRPV1 [1]; log concentration -7 (M)): 449.588 and 119.691 and 406.342 and 2.432 and 332.379 and 480.521 and 322.808 and 86.6522 and 310.081 and 147.599 and 431.922 and 467.245
- Change in Ca5 fluorescence, individual experiments (CRC raw data) (human TRPV1 [1]; log concentration -7.52288 (M)): 356.845 and 111.895 and 323.852 and 3.161 and 274.896 and 259.762 and 73.7365 and 34.2854 and 273.106 and 132.986 and 393.207 and 420.023 and 372.386
- Change in Ca5 fluorescence, individual experiments (CRC raw data) (human TRPV1 [1]; log concentration -8 (M)): 5.385 and 96.7773 and 164.958 and 3.572 and 5.951 and 47.2327 and 7.175 and 1.822 and 309.776 and 125.652 and 333.972 and 270.42 and 149.94
- Change in Ca5 fluorescence, individual experiments (CRC raw data) (human TRPV1 [1]; log concentration -8.52288 (M)): 11.2452 and 61.0751 and 5.8468 and 39.7141 and 6.931 and 3.397 and 5.378 and 0.9947 and 335.917 and 103.111 and 65.1245 and 4.361 and 1.4546
- Change in Ca5 fluorescence, individual experiments (CRC raw data) (human TRPV1 [1]; log concentration -9 (M)): 6.236 and 19.5627 and 8.465 and 57.6325 and 2.89 and 1.796 and 10.3317 and 2.025 and 308.34 and 50.3171 and 51.1654 and 4.4283 and 2.369 and 122.651 and 6.769 and 5.267
- Change in Ca5 fluorescence (human TRPV1 [1]; maximal effective concentration, HEK-293 TRPV1 cells, dye saturation control): 435 ± 15%
- [Ca]i response (change in fluorescence), individual replicates (human TRPV1 [2]; Capsaicin alone, concentration -5 (log)): 595.541 and 626.277 and 602.254 and 594.454 and 590.074 and 541.046 and 516.667
- [Ca]i response (change in fluorescence), individual replicates (human TRPV1 [2]; Capsaicin alone, concentration -6 (log)): 552.521 and 565.654 and 354.62 and 545.98 and 564.249 and 584.634 and 580.153
- [Ca]i response (change in fluorescence), individual replicates (human TRPV1 [2]; Capsaicin alone, concentration -7.52288 (log)): 532.091 and 453.931 and 457.847 and 272.568
- [Ca]i response (change in fluorescence), individual replicates (human TRPV1 [2]; Capsaicin alone, concentration -8 (log)): 105.919 and 177.189 and 79.3195 and 30.3097 and 60.6584 and 319.686 and 144.106
- [Ca]i response (change in fluorescence), individual replicates (human TRPV1 [2]; Capsaicin alone, concentration -8.52288 (log)): 2.139 and 1.734 and 6.239 and 49.459 and 10.1781 and -5.201 and 2.9246 and 2.502 and 16.6604 and 25.7998 and 147.975 and 180.247
- [Ca]i response (change in fluorescence), individual replicates (human TRPV1 [2]; Capsaicin alone, concentration -9 (log)): 2.491 and -0.4612 and 4.215 and 6.618 and 6.288 and 4.839 and 3.5734 and 0.9298 and 2.514 and -2.854 and 3.184 and 5.152
- [Ca]i response (change in fluorescence), individual replicates (human TRPV1 [2]; Capsaicin alone, concentration -10 (log)): -1.109 and 5.021 and -0.4125 and -2.624 and 0.2107
- [Ca]i response (change in fluorescence), individual replicates (human TRPV1 [2]; Capsaicin post-PMA, concentration -5 (log)): 496.984 and 417.588
- [Ca]i response (change in fluorescence), individual replicates (human TRPV1 [2]; Capsaicin post-PMA, concentration -6 (log)): 544.156 and 380.208 and 494.359 and 527.721 and 402.607 and 284.086
- [Ca]i response (change in fluorescence), individual replicates (human TRPV1 [2]; Capsaicin post-PMA, concentration -7.52288 (log)): 396.653 and 394.172 and 495.495 and 292.964
- [Ca]i response (change in fluorescence), individual replicates (human TRPV1 [2]; Capsaicin post-PMA, concentration -8 (log)): 292.695 and 167.258 and 234.279 and 203.284 and 320.763 and 311.597 and 228.909
- [Ca]i response (change in fluorescence), individual replicates (human TRPV1 [2]; Capsaicin post-PMA, concentration -8.52288 (log)): 137.626 and 123.803 and 108.674 and 62.3148 and 135.616 and 311.329 and 67.1431 and 138.197 and 73.5753 and 51.0772
- [Ca]i response (change in fluorescence), individual replicates (human TRPV1 [2]; Capsaicin post-PMA, concentration -9 (log)): 41.3533 and 39.7921 and 40.9396 and 31.7003 and 53.9609 and 52.809 and 35.9713 and 49.984 and 39.816 and 29.7359 and 17.3567
- [Ca]i response (change in fluorescence), individual replicates (human TRPV1 [2]; Capsaicin post-PMA, concentration -10 (log)): 44.473 and 19.9944 and 42.7227 and 36.7683 and 31.3318 and 10.3982
- HBSS post Capsaicin, individual experiments (human TRPV1 [2]; HBSS after capsaicin 10 nM): 14.4552 and 24.0374 and 16.1823
- TRPV1 response after exposure to PMA (human TRPV1 [2]; PMA 100 nM, 5 min pretreatment): amplified
- Drugs post-PMA, individual experiments (human TRPV1 [2]; capsaicin 10 nM after PMA 100 nM for 5 min, response to PMA alone subtracted): 292.695 and 167.258 and 234.279 and 203.284 and 320.763
- Capsaicin response without PMA, individual experiments (human TRPV1 [2]; capsaicin 10 nM alone): 226.255 and 133.384 and 132.765
- Drugs alone, individual experiments (human TRPV1 [2]; capsaicin 10 nM without PMA pretreatment): 79.3195 and 30.3097 and 60.6584
- Change of Ca5 fluorescence, Mean ± SEM, EV (10 µM) (HEK-293 EV cells): 12 ± 2%

- Effect of pre-treatment on the capsaicin response (human TRPV1 [3]; 10 µM, 5 min exposure, then capsaicin 10 nM): prevented
SMILES: Oc1cc2c(cc1O)CN(C(=S)NCCc1ccc(Cl)cc1)CCC2 [capsazepine, reference compound]
- Post-capsaicin: response to subsequent capsaicin addition, individual experiments (human TRPV1 [3]; capsaicin 10 nM after 5 min drug 10 µM, TRPV1 cells, listed as CAPZ): 10.3375 and -4.09 and 24.8571 and 12.9593 and -2.666 and 6.069
- Pre-capsaicin: response to first drug, individual experiments (human TRPV1 [3]; drug 10 µM for 5 min, TRPV1 cells, listed as CAPZ): 25.3514 and 3.867 and 12.8382 and 10.4656 and 4.742 and 37.2822
